Patent US20100255015A1 (priority 2007, published 2010)
Read-outs that look alike come from different tables or passages of the source.

How the values were obtained:
[1] = tested on: Z5B71 T cell clone; assay: T cell activation assay: stimulation of the Z5B71 T cell clone, IFN-γ ELISA; assay type: cell-based, human; settings: antigen-loaded APCs, 36 hr
[2] = target: T1, CD1b (Homo sapiens, UniProt P29016); assay type: cell-based; settings: Z5B71 clone
T1 construct: expressed in transfected cells; host or cells: THP-1 (human promyelocytic), BCMGS-Neo / -Hygro vectors, electroporation

[3] = tested on: CD1b-restricted T cell clones Z5B71, Z4B27, Z5B11; assay: DCs pulsed with heat-killed or infected with living M. tuberculosis, recognition by CD1b-restricted T cell clones; assay type: cell-based, human
Protocol: Pulsing and infection of DCs with M. tuberculosis. M. tuberculosis was killed at 80° C. for 20 min and incubated in RPMI-1640 medium containing 10% FCS for 2 hours at 37° C. with DCs (3×10^4/well) before addition of T cells (10^5/well in triplicate). DCs were infected as previously described De Libero et al. (2005) Immunity 22, 763-72 and IFN-γ release was monitored by ELISA.

[4] = tested on: PBMCs with autologous DCs; assay type: cell-based, human

T1 sequence (P61769 21-119): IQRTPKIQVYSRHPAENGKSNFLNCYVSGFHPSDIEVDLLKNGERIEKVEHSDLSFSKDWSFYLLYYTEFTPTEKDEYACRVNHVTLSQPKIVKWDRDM
T1 sequence (P29016 18-333): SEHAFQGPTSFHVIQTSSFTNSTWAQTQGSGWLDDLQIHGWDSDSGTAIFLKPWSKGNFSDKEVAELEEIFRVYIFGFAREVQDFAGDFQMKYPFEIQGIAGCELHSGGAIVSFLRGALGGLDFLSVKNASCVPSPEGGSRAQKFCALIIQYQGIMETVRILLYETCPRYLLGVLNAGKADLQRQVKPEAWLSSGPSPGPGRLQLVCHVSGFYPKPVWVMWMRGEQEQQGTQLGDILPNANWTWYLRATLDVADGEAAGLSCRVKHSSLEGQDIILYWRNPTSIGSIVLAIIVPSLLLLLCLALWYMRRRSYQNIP

**Q.** “(R)-1-O-mycoloyl-glycerol (3-O-mycoloyl-sn-glycerol) [s(R)-GroMM]” was tested. Which “stimulation of the Z5B71 T cell clone (IFN-γ release)” value (shortened to “stimulation of the Z5B71 T cell clone”) [1] did it give?
**A.** stimulated the Z5B71 T cells more efficiently than the s(S)-GroMM

**Q.** With “(S)-1-O-mycoloyl-glycerol (1-O-mycoloyl-sn-glycerol) [s(S)-GroMM]” as the substance, how does the “stimulation of the Z5B71 T cell clone” value [1] read?
**A.** s(R)-GroMM stimulated the Z5B71 T cells more efficiently than the s(S)-GroMM

**Q.** With glycerol monomycolate [GroMM] as the substance, how does the “T cell response with APCs expressing CD1b and CD1e versus only CD1b (IFN-γ release)” value ([2]; THP-1-CD1b vs THP-1-CD1b-CD1e) read?
**A.** very similar T cell response

**Q.** What about the “CD1 restriction: T cell stimulation with panel of CD1-transfected APCs (TNF-α release)” value ([2]; THP-1 transfected with CD1A, CD1B or CD1C) of the same substance?
**A.** Only CD1b-expressing cells were able to stimulate T cells

**Q.** And the “CD1 restriction: inhibition of clone reactivity by anti-CD1 mAbs (TNF-α release)” value ([2]; mAbs at 10 μg/ml, 30 min before T cells)?
**A.** only anti-CD1b mAbs were capable of inhibiting the reactivity of the clone

**Q.** What about the “immunogenicity when APCs infected with living M. tuberculosis (IFN-γ release by Z5B71)” value [3] of the same substance?
**A.** highly immunogenic

**Q.** And the “IFN-γ release after stimulation, mean average” value [4]?
**A.** 117 pg/mL

**Q.** And the “IFN-γ release after stimulation, mean average” value ([4]; 10 μg/ml, 6 days)?
**A.** 73 pg/mL

**Q.** And the “effect of blocking antibodies against type 1 CD1 molecules on induced IFN-γ secretion” value ([4]; PPD-positive healthy donors, CD1 blocking antibodies 10 μg/ml each)?
**A.** abrogated the reactivity

**Q.** And the “IFN-γ release after stimulation” value ([4]; naïve, PPD-negative donors (n=10), 10 μg/ml, 6 days)?
**A.** no response

**Q.** What about the “IFN-γ release after stimulation” value ([4]; tuberculosis patients (n=11), 10 μg/ml, 6 days) of the same substance?
**A.** no IFN-γ secretion above background levels

**Q.** And the “stimulation of the Z5B71 T cell clone” value [1]?
**A.** intermediate activity
